Measurements taken from patent US20040038369A1, “Airway-specific trypsin-like enzymes and method of using the same” (priority 2000, published 2004).

Legend:
[1] = test system: IL-8 promoter; assay: IL-8 promoter luciferase reporter assay in BEAS-2B; format: cell-based, human; conditions: HAST 300 mU/mL, 3 hours
Protocol: About 1.5 Kb and 162 bp of the promoter domains (Mukaida N. et al., J. Immunol., 143: 1366-1371, 1989) of IL-8 were cloned with LA-PCR (produced by Takara Shuzo Co.) using human genome DNA as a template, a forward primer: IL8-1481; […], a forward primer: IL8-162; […], a reverse primer: IL8LUC-R; […]. The PCR was carried out at 98° C. for 20 sec, at 58° C. for one minute and at 68° C. for 5 minutes in 25 cycles. The obtained DNA fragments of the promoter domains of about 1.5 Kb and about 0.25 Kb were named IL8-1481 and IL8-162, respectively.
A DNA fragment containing from ATG (translation-starting codon) to NarI site in the luciferase gene of pGL3-Basic (produced by Promega Corp.) was amplified by a PCR method using a forward primer: IL8LUC-F; […] and a reverse primer: LUC2087R; […]. This luciferase gene N-terminal DNA fragment was ligated to the IL8-1481 and the IL8-162 by a PCR method to obtain the PCR fragments IL8-1481-Luc (about 2 Kb) and IL8-162-Luc (about 800 bp). […]
The luciferase activity was assayed with Pica Gene Dual•Renilla reniformis (produced by Toyo Ink Co.,). […] First, 100 μL of Pica Gene luminescent reagent II was added, and the luminescence due to the firefly luciferase was assayed with a luminometer (LUMINOUS CT-9000D (produced by DIA-IATRON Corp.)). […]

[2] = molecular target: T1, PAR-4 (Homo sapiens, UniProt Q96RI0); assay: Calcium influx in PAR-4-expressing insect cells; format: cell-based; conditions: AST 2 units/ml; trypsin, thrombin 0.1 to 10 units/mL
T1 construct: expressed in transfected cells; host or cells: Sf9 insect cells infected with recombinant baculovirus VL-PAR (pVL1393)
T1 sequence (Q96RI0 18-385): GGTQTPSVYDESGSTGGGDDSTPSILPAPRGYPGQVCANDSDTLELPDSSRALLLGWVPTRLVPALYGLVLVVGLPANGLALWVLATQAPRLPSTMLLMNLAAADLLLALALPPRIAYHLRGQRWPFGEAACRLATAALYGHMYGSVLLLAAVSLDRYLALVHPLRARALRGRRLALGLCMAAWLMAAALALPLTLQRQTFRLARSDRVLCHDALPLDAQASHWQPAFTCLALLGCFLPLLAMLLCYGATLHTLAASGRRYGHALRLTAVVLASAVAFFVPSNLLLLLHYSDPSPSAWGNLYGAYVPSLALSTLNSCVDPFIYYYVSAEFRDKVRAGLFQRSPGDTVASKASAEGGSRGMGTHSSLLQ
Protocol: The above-obtained recombinant baculovirus VL-PAR for expressing the PAR was used to infect 1.0×10^7 Sf9 cells sowed on a 75 cm^2 flask at an MOI=2, and was then left and stationally cultured at 27° C. for 40 hours. After the culture, the infected cells were recovered and then subjected to a calcium influx experiment to-confirm the function of the PAR.
The recovered infected cells (about 5×10^6 cells) were once washed with HEPES-Tyrode buffer solution-Ca^2+ (−) pH 7.4, and then suspended in 5 mL of HEPES-Tyrode buffer solution (containing Fura2-AM, 1 μg/mL) to load the Fura2-AM on the cells at 27° C. for 30 minutes. The suspension was centrifuged at 800 rpm at room temperature for 5 minutes to recover the cells. The cells were twice washed with HEPES-Tyrode buffer solution-Ca^2+ (−) pH 7.4 and then resuspended in 5 mL of HEPES-Tyrode buffer solution-Ca^2+ (−) pH 7.4. The cell suspension was mixed with 5 μL of 1M CaCl2 to give a final concentration of 1 mM CaCl2, and then incubated in a shaded state at room temperature for 5 minutes. The prepared Fura2-AM-loaded infected cells were dispensed into a 96 well plate in a volume of 100 μL/well, further subjected to the dispensation of HEPES-Tyrode buffer solution-C^2+ (+) pH 7.4 in a volume of 80 μL/well, and then assayed with a Fluorescence Drug Screening System (made by Hamamatsu Photonics Co.). […]

HAST: human airway-specific trypsin-like enzyme; propeptide moiety bound to trypsin-like protein moiety via a disulfide bond
production of the IL-8 at a transcription level (reporter activity) [1]: promoted
Ca2+ influx [2]: observed
